Experimental data reported in article PMC7827417, “Steroid Glycosides Hyrcanoside and Deglucohyrcanoside: On Isolation, Structural Identification, and Anticancer Activity” (Foods, 2021).
Read-outs that look alike come from different tables or passages of the source.

Columns and labels:
[1] = tested on: CCRF-CEM; assay: MTS cytotoxic assay, CCRF-CEM; assay type: cell-based; conditions: Homo sapiens, 72 h
Text: (§1) If not indicated otherwise, the cell lines were purchased from the American Type Culture Collection (ATCC). […] K562 is the erythroid-myeloid precursor cell line derived from chronic myeloid leukemia carrying the BCR-ABL hybrid gene. A549, MCF-7, PC-3, 5637, U-2 OS, and MiaPaCa-2 are cells derived from lung, breast, prostate, bladder carcinoma, osteosarcoma, and pancreatic adenocarcinoma, respectively. HEK 293T are transformed human embryonic kidney cells, and L929 (Sigma, St. Louis, MS, USA) are transformed mouse fibroblasts. HCT116, cells from colorectal carcinoma, and their p53 gene knock-out variant (HCT116p53-/-) were purchased from Horizon Discovery. This cell line is a model of human tumors bearing p53 loss-of-function mutations or biallelic deletion of the p53 gene, frequently associated with poor prognosis. The MRC-5 and BJ cells were used as noncancerous cells; more specifically, they are human fibroblasts from the lungs and foreskin, respectively. According to the supplier’s recommendations, all cells were cultured at 37 °C in a 5% CO2 atmosphere and 100% humidity. The culture media used were: DMEM, RPMI 1640, and MEM (according to a cell line); all were supplemented with 5 g L^−1 glucose, 10% fetal calf serum, 2 mM glutamine, 100 U mL^−1 penicillin, 100 µg mL^−1 streptomycin, and NaHCO3. Cells were passaged every two or three days using 0.25% trypsin plus 0.01% EDTA (ethylenediamine tetraacetic acid) in phosphate-buffered saline.
(§2) To evaluate compound cytotoxicity, cells were seeded in 384-well microtiter plates in a volume of […]. The next day, aliquots of the tested derivatives were transferred with Echo550 acoustic liquid handler (Labcyte) to obtain dose response curves with dilution factor 4. The experiments were performed in technical duplicates and three or more biological replicates. After 72 h of incubation in a humidified incubator, […] of the MTS/PMS stock solution were pipetted into each well. After another 1–4 h of incubation, the absorbance at 490 nm was measured using an EnVision Multilabel Plate Reader (PerkinElmer).

[2] = tested on: L929; assay: MTS cytotoxic assay, L929; assay type: cell-based, mouse
Text: as §1, §2

[3] = tested on: HCT116p53-/-; assay: MTS cytotoxic assay, HCT116p53-/-; assay type: cell-based; conditions: Homo sapiens, 72 h
Text: as §1, §2

[4] = tested on: A549; assay: MTS cytotoxic assay, A549; assay type: cell-based; conditions: Homo sapiens
Text: as §1, §2

[5] = tested on: MRC-5; assay: MTS cytotoxic assay, MRC-5; assay type: cell-based; conditions: Homo sapiens
Text: as §1, §2

[6] = tested on: MiaPaCa-2; assay: MTS cytotoxic assay, MiaPaCa-2; assay type: cell-based; conditions: Homo sapiens
Text: as §1, §2

[7] = tested on: CCRF-CEM cells; assay: BrDU incorporation analysis (DNA synthesis); assay type: cell-based, human; conditions: % of positive cells
Protocol: The cells were cultured in the same way as the cell cycle analysis method. Just before harvesting, 5-bromo-2′-deoxyuridine (BrDU) of 10 µM concentration was added to the cells for pulse-labeling for 30 min. Then, the cells were fixed with −20 °C cold 70% ethanol and stored in a freezer for 16 h. Before antibody staining, the samples were incubated on ice for 30 min, washed once with phosphate-buffered saline (PBS), and re-suspended in 2 M of HCl for 30 min at room temperature to hydrolyze their DNA. After neutralization with 0.1 M of Na2B4O7 (borax) solution, the cells were washed with PBS containing 0.5% Tween-20 and 1% BSA. This was followed by staining with the primary anti-BrDU antibody (Exbio) for 30 min at room temperature. Then, the cells were washed with PBS and stained with a secondary anti-mouse antibody conjugated to fluorescein isothiocyanate (Merck-Sigma, St. Louis, MS, USA) at room temperature in the dark. After another washing with PBS and incubation with propidium iodide (0.1 mg·mL^−1) and RNAse A (0.5 mg·mL^−1) for 1 h at room temperature in the dark, the cells were analyzed by flow cytometry using a 488 nm laser (FACSCalibur, Becton Dickinson, Franklin Lakes, NJ, USA).

[8] = tested on: mouse peritoneal cells; assay: Viability of mouse peritoneal primary cells (macrophages), WST-1; assay type: cell-based; conditions: 24 h; for IC50: Mus musculus, Macrophage, WST-1, lowest tested concentration 1 nM, read-out: concentration at which IC50 was reached in mouse macrophages
Protocol: Female mice of the inbred strain C57BL/6, eight to ten weeks old, were purchased from Charles River Deutschland (Sulzfeld, Germany). They were kept in transparent plastic cages in groups of ten. The animals were housed with food and water ad libitum, lighting was set on 6–18 h, and the temperature was set at 22 °C. All protocols were approved by the institutional ethics committee (MSMT15894/2013-310). Animals, killed by cervical dislocation, were intraperitoneally injected with 8 mL of sterile saline. Pooled peritoneal cells collected from mice were washed in sterile saline, re-suspended in the culture medium, and seeded into 96-well microplates in final 100-μL volumes (Costar, Cambridge, MA, USA). The final density of the cells was 0.25 × 10^6 per mL^−1. The cultures were maintained with or without compounds for 24 h at 37 °C with 5% CO2 in a humidified Heraeus incubator in complete RPMI-1640 (Merck-Sigma, St. Louis, MS, USA), which contained 10% heat-inactivated fetal bovine serum, 2 mM of L-glutamine, 50 μg·mL^−1 of gentamicin, and 5 × 10^−5 M of 2-mercaptoethanol (all Merck-Sigma, St. Louis, MS, USA). Compounds (Ob, Cy (cymarin), Hyr, deHyr) were prepared as 100 mM stock solutions in dimethyl sulfoxide (DMSO) with cell culture grade. The next dilution continued immediately before the experiment with the culture medium. To eliminate the influence of DMSO, equal levels of DMSO were added to the experimental groups.
The viability of mouse peritoneal cells was determined using a colorimetric assay based on the cleavage of the tetrazolium salt WST-1 by mitochondrial dehydrogenases in viable cells (Merck-Sigma, St. Louis, MS, USA). The cells were cultured as described above. After 24 h of culture, the WST-1 was added, and the cells were kept in the Heraeus incubator at 37 °C for an additional 3 h. Optical density at 450/690 nm was determined. The cytotoxicity of the tested CGs was expressed as a percentage. The test samples were related to control samples consisting of untreated cells and samples with 100% dead cells evoked by 1% Triton, according to the formula: ((exp. value − control value)/(Triton value − control value)) × 100. All control and experimental variants were run in quadruplicates. The data were analyzed using GraphPad Prism software 6.05 (GraphPad, San Diego, CA, USA). Values were expressed as the mean ± standard error of the mean (SEM).

[9] = WST-1, 0.001–100.0 µM, not dose-dependent

Structure (SMILES) | IC50 [1] | IC50 ([2]; Mus musculus, L929, 72 h) | IC50 [3] | IC50 ([4]; A549, 72 h) | IC50 ([5]; MRC5, 72 h) | IC50 ([6]; MIA PaCa-2, 72 h) | BrDU ([7]; 1 × IC50, 24 h) | BrDU ([7]; 5 × IC50, 24 h) | cytotoxicity to mouse macrophages, % of the control [8, 9] | IC50 [8] | IC50 ([1]; MTS, read-out: IC50) | IC50 ([2]; L929 mouse transformed fibroblasts, MTS, 72 h, read-out: IC50) | IC50 ([3]; HCT116p53-/-, MTS, read-out: IC50) | IC50 ([4]; A549, MTS, 72 h, read-out: IC50) | IC50 ([5]; MRC5, MRC-5 noncancerous lung fibroblasts, MTS, 72 h, read-out: IC50) | IC50 ([6]; MIA PaCa-2, MiaPaCa-2, MTS, 72 h, read-out: IC50) | decrease of viability of mouse macrophages compared to the control ([8]; WST-1, independent of concentration 1 nm–100 µM) | cytotoxicity to mouse macrophages (in words) ([8]; up to 100 µM concentration) | viability of mouse macrophages reduced to % of the control [8, 9]
C[C@]12CC[C@H]3[C@@H](CCC4=C[C@@H](O[C@@H]5OC[C@@H](O[C@@H]6O[C@H](CO)[C@@H](O)[C@H](O)[C@H]6O)[C@H](O)[C@H]5O)CC[C@@]43C=O)[C@@]1(O)CC[C@@H]2C1=CC(=O)OC1 [Hyr, (3β)-3-[(4-O-β-D-glucopyranosyl-β-D-xylopyranosyl)oxy]-14-hydroxy-19-oxocarda-4,20(22)-dienolide] | 660 ± 38 nM | > 10000 nM | 730 ± 98 nM | 550 ± 38 nM | 302 ± 43 nM | 491 ± 23 nM | 30.58% | 23.58% | about 60% | ~100 nM |  |  |  |  |  |  |  |  | 
C[C@@H]1O[C@@H](O[C@H]2C[C@@H](O)[C@]3(CO)[C@H]4[C@H](O)C[C@]5(C)[C@@H](C6=CC(=O)OC6)CC[C@]5(O)[C@@H]4CC[C@]3(O)C2)[C@H](O)[C@H](O)[C@H]1O [Ob, ouabain] |  |  |  |  |  |  | 40.53% | 19.29% |  |  | 32 ± 5.8 nM | > 10000 nM | 28 ± 7.6 nM | 22 ± 0.94 nM | 39 ± 1.6 nM | 49 ± 2.01 nM | 10–20% | did not exhibit significant cytotoxicity | 
C[C@]12CC[C@H]3[C@@H](CCC4=C[C@@H](O[C@@H]5OC[C@@H](O)[C@H](O)[C@H]5O)CC[C@@]43C=O)[C@@]1(O)CC[C@@H]2C1=CC(=O)OC1 [deHyr, deglucohyrcanoside] | 110 ± 21 nM | > 10000 nM | 130 ± 23 nM | 90 ± 14 nM | 77 ± 12 nM | 120 ± 5.2 nM | 37.40% | 6.08% |  | ~10 nM |  |  |  |  |  |  |  |  | 50%
CO[C@H]1C[C@H](O[C@H]2CC[C@]3(C=O)[C@H]4CC[C@]5(C)[C@@H](C6=CC(=O)OC6)CC[C@]5(O)[C@@H]4CC[C@]3(O)C2)O[C@H](C)[C@H]1O [Cy, cymarin] | 14 ± 2.1 nM | > 10000 nM | 19 ± 3.8 nM | 15 ± 1.8 nM | 26 ± 2.4 nM | 44 ± 8.6 nM | 32.34% | 21.37% | about 60% | ≤ 1 nM |  |  |  |  |  |  |  |  | 
